We go through one compound from patent US20220411448A1, “CHROMENE-4-ONE DERIVATIVES AS BRAIN-DERIVED NEUROTROPHIC FACTOR (BDNF) MIMETICS” (FLORATEK PHARMA AG, priority 2019, published 2022).

Series [1] has as its system primary cultures of cerebral cortical astrocytes. The experiment in a line: Glucose uptake ([3H]2-deoxyglucose) in astrocyte cultures. It counts as cell-based, mouse. As to conditions: 10 μM, 30 minutes after application. As for the experimental part: Primary cultures of cerebral cortical astrocytes were prepared from Swiss albino newborn mice (1-2 days old) as described [Pellerin L, Magistretti P J. Glutamate uptake into astrocytes stimulates aerobic glycolysis: a mechanism coupling neuronal activity to glucose utilization. Proc Natl Acad Sci USA. 1994 Oct. 25; 91(22):10625-9]. This procedure yields cultures that are >95% immunoreactive for glial fibrillary acidic protein.
Astrocytes are emerging as having significant roles in several homeostatic processes in the brain [Zuchero J B, Barres B A. Glia in mammalian development and disease. Development 2015 142: 3805-3809]. To evaluate the potential effects of Compound A (10 μM) on astrocyte metabolism, the uptake of glucose and lactate release were measured 30 minutes after application of compounds to the culture (FIGS. 2 and 3).
Glucose utilization by cells was measured using radioactive 2-deoxyglucose, a well-established marker of glucose utilization not metabolized within cells. […]
In order to quantify glucose utilization by cells in the presence of Compound A/SND118, radioactive 2-deoxyglucose, a well-established marker of glucose utilization not metabolized within cells, was used. The radioactivity count is thus proportional to the transport and phosphorylation of glucose that enters into the cells. […]

For series [2], the system named is cortical neurons with MPP+ lesion. The experiment in a line: MPP+ induced ROS in cortical neurons (DCFDA). It counts as cell-based, mouse. The following applies: 0.5 and 1 μM, 8 h MPP+ lesion. As for the experimental part: Mouse cortical neurons were prepared as described. At DIV8 cells were treated with the test and control MK801 compounds for 1 h, before the addition of MPP+(Sigma, D048) at a final concentration of 100-200 μM. The experiment was carried out with n=6 technical replicates per condition, vehicle and MPP+ alone controls were included. After 8 h determination of ROS was conducted and after 24 h of MPP+ lesion on DIV9 cells were subject to the apoptosis measurement. Apoptosis was determined using YO-PRO™-1 Iodide (Invitrogen; Y3603). Part of supernatant of the cultivated cells was removed and 10 μL of a 50 μM YO-PRO 1 solution in PBS is added to the remaining 90 μL to result in a final concentration of 5 μM YO-PRO 1 in well. Incubation for 15 min in the incubator at 37° C. was performed (light protected) followed by discarding the supernatant. 140 μL PBS was added to each well and the fluorescence was measured using a plate-reader (Cytation 5, BioTek) at excitation wavelength 485 nm to Emission wavelength 535 nm.
ROS generation was measured with Abcam's DCFDA-Cellular Reactive Oxygen Species Detection Assay (ab 113851). […] Cells were then incubated with the test items and lesion for 8 h and thereafter the fluorescent signal was measured at 485 nm/535 nm (Cytation 5, BioTek).

In a further series the test system is TNF-α. As to the kind of experiment: LPS stimulation of BV-2 microglia: TNF-α. It counts as cell-based, murine. The following applies: between 0.3 and 3 μM, BV2, LPS 500 ng/ml, 24 h. As for the experimental part:
(§1) The murine microglial cell line BV-2 was grown in DMEM medium supplemented with 10% FCS, 1% penicillin/streptomycin and 2 mM L-glutamine (culture medium). For LPS stimulation assay, 10000 BV-2 cells per well (uncoated 96 well plates) were plated and after 24 hours, medium was changed to serum-free treatment medium (DMEM, 2 mM L-glutamine) and cells were maintained in treatment medium for the remaining culture period. 1 h after changing cells to treatment medium, the test items were added 1 hour before LPS stimulation (Sigma-Aldrich; L6529; 1 mg/ml stock in ddH2O, final concentration in well: 500 ng/ml (dilutions in medium)). Cells treated with vehicle, cells treated with LPS alone, as well as cells treated with LPS plus reference dexamethasone at 10 μM item served as controls.
(§2) Following 24 h of stimulation, cell supernatants were collected for the NO, and cytokine measurements. Levels of 2 cytokines (TNF-α, IL-6) were measured by an immunosorbent assay (U-PLEX Custom […] Cytokine, Mesoscale Discovery) according to the instructions of the manufacturer and evaluated in comparison to calibration curves provided in the kit. […] Absorbance was measured at 570 nm. Nitrosative stress was evaluated in the study samples in comparison to a NaNO2 standard curve. […]

The test system of another series is NO. As to the kind of experiment: LPS stimulation of BV-2 microglia: NO (Griess reagent). It counts as cell-based, murine. The following applies: between 0.3 and 3 μM, BV2, LPS 500 ng/ml, 24 h. As for the experimental part:
as §1, §2
Background: Nitrite, measured by Griess reagent, commonly stands in for NO production.

Series [3] can be described thus: Metabolic stability in mouse plasma. It counts as in vitro ADME, CD1-mouse. As to conditions: 1 μM. As for the experimental part:
The compounds were incubated with plasma, and the collected samples were analyzed by UPLC/HR-MS to measure stability of the compounds.
Sample type: plasma; Species: CD1-mouse (male), human (mixed gender); Time points: 0, 20, 40, 60, 120 min;
Spiking solvent: 50% DMSO ( 1/100 to incubation); Quenching solvent: 2-fold volume of 100% ACN; Control: propanthelin bromide (human, mouse)
The study compounds were incubated with plasma as specified above. The collected samples were stored at −20 C until thawed at room temperature, centrifuged and analyzed using UPLC/PDA with high resolution mass spectrometry (QE-Orbitrap-MS on DDI mode) to monitor substrate depletion and metabolite formation. The analytical method was optimised by using the parent compounds for optimum chromatographic properties (peak shape and retention) and mass spectrometric ionisation. Disappearance was based on relative LC/MS peak areas (0 min=100%) and will be used to calculate half-lives.

As for `O=c1cc(-c2ccc(CCCC[P+](c3ccccc3)(c3ccccc3)c3ccccc3)cc2)oc2c(O)c(O)ccc12` [SND118, 4-[4-(7,8-dihydroxy-4-oxo-chromen-2-yl)phenyl]butyltriphenylphosphonium bromide], the “uptake of deoxyglucose (glucose uptake)” value in series [1] was “increased the uptake of deoxyglucose in the same range as glutamate control”. Further, in series [2], the “level of ROS induced by MPP+ (DCFDA)” value is recorded as “decreased the level of ROS”. For the same compound, the “level of TNF-α in response to LPS stimulation” value in the series on TNF-α is “significantly decreased”. Further, in the series on NO, the “level of NO in response to LPS stimulation” value is “significantly decreased”. The “T1/2 plasma Mouse” value in series [3] is 13.2 h.
